In brackets after ≈: the same amount, converted by molar mass. Entries after “also recorded” stand apart in the source; their conditions may differ. Where two headings read alike, the source gives them in different places.
How the values were obtained:
[1] = system: B. cereus ATCC 14579; settings: cited from earlier work
[2] = PE vs phosphatidylcholine (PC); cited from earlier work
[3] = system: E. coli K12 spheroplasts; settings: only the IM left intact; cited from earlier work
[4] = system: K. pneumoniae CQ1942; assay: Broth microdilution MIC, glycosides with or without polymyxins; assay type: cell-based, Klebsiella pneumoniae; settings: for MIC: Klebsiella pneumoniae, CQ1942
[5] = system: P. aeruginosa CQ4924; assay: as above; assay type: cell-based, Pseudomonas aeruginosa; settings: for MIC: Pseudomonas aeruginosa, CQ4924
[6] = system: E. coli K12; settings: cited from earlier work
[7] = system: K. pneumoniae CQ1947; assay: Broth microdilution MIC, glycosides with or without polymyxins; assay type: cell-based, Klebsiella pneumoniae; settings: for MIC: Klebsiella pneumoniae, CQ1947
[8] = system: E. cloacae CQ1941; assay: Broth microdilution MIC/MBC, glycosides with or without polymyxins; assay type: cell-based; settings: for MIC: Enterobacter cloacae, CQ1941
[9] = alone, read-out: MICA (MIC of each compound individually)
[10] = combination with the lowest FICI
[11] = compound + colistin, lowest FICI

MIC of colistin in combination with the compound ([4]; Cpd conc. 0.4 μg/mL, strain E): 0.5 µg/mL | MIC of colistin in combination with the compound ([4]; Cpd conc. 0.8 μg/mL, strain E): 0.5 µg/mL | MIC of colistin in combination with the compound ([4]; Cpd conc. 3.125 μg/mL, strain E): 0.25 µg/mL | MIC of colistin in combination with the compound ([4]; Cpd conc. 6.25 μg/mL, strain E): 0.25 µg/mL | MIC of colistin in combination with the compound ([4]; Cpd conc. 12.5 μg/mL, strain E): 0.25 µg/mL | MIC of colistin in combination with the compound ([4]; Cpd conc. […], strain E): 0.5 µg/mL | MIC ([4]; agent alone, no adjuvant (polymyxin conc. 0), strain E, read-out: MIC): > 100 µg/mL | MIC [4, 9]: > 100 µg/mL | MIC of compound in combination with PMB ([4]; PMB 0.25 μg/mL, strain E): > 100 µg/mL | MIC of compound in combination with PMB ([4]; PMB 0.5 μg/mL, strain E): ≤ 0.1 µg/mL | MIC of compound in combination with colistin ([4]; colistin 0.06 μg/mL, strain E): > 100 µg/mL | MIC of compound in combination with colistin ([4]; colistin 0.125 μg/mL, strain E): > 100 µg/mL | MIC of compound in combination with colistin ([4]; colistin 0.25 μg/mL, strain E): 3.1 µg/mL | MIC of compound in combination with colistin ([4]; colistin 0.5 μg/mL, strain E): ≤ 0.1 µg/mL | MICA(A + B) (MIC of compound in combination with colistin) [4, 10]: 3.125 µg/mL | MICB(A + B) (MIC of colistin in combination with compound) [4, 10]: 0.25 µg/mL | MIC of colistin in combination with the compound ([5]; Cpd conc. 0.4 μg/mL, strain H): > 0.5 µg/mL | MIC of colistin in combination with the compound ([5]; Cpd conc. 0.8 μg/mL, strain H): > 0.5 µg/mL | MIC of colistin in combination with the compound ([5]; Cpd conc. 3.125 μg/mL, strain H): 0.5 µg/mL | MIC of colistin in combination with the compound ([5]; Cpd conc. 6.25 μg/mL, strain H): 0.5 µg/mL | MIC of colistin in combination with the compound ([5]; Cpd conc. 12.5 μg/mL, strain H): 0.5 µg/mL | MIC of colistin in combination with the compound ([5]; Cpd conc. […], strain H): > 0.5 µg/mL | MIC of compound in combination with PMB ([5]; PMB 0.25 μg/mL, strain H): > 100 µg/mL | MIC of compound in combination with PMB ([5]; PMB 0.5 μg/mL, strain H): > 100 µg/mL | MIC ([5]; agent alone, no adjuvant (polymyxin conc. 0), strain H, read-out: MIC): > 100 µg/mL | MIC [5, 9]: > 100 µg/mL | MIC of compound in combination with colistin ([5]; colistin 0.06 μg/mL, strain H): > 100 µg/mL | MIC of compound in combination with colistin ([5]; colistin 0.125 μg/mL, strain H): > 100 µg/mL | MIC of compound in combination with colistin ([5]; colistin 0.25 μg/mL, strain H): > 100 µg/mL | MIC of compound in combination with colistin ([5]; colistin 0.5 μg/mL, strain H): 3.1 µg/mL | MICA(A + B) (MIC of compound in combination with colistin) [5, 10]: 3.125 µg/mL | MICB(A + B) (MIC of colistin in combination with compound) [5, 10]: 0.5 µg/mL | MIC of colistin in combination with the compound ([7]; Cpd conc. 0.4 μg/mL, strain F): 0.5 µg/mL | MIC of colistin in combination with the compound ([7]; Cpd conc. 0.8 μg/mL, strain F): 0.5 µg/mL | MIC of colistin in combination with the compound ([7]; Cpd conc. 3.125 μg/mL, strain F): 0.5 µg/mL | MIC of colistin in combination with the compound ([7]; Cpd conc. 6.25 μg/mL, strain F): 0.5 µg/mL | MIC of colistin in combination with the compound ([7]; Cpd conc. 12.5 μg/mL, strain F): 0.5 µg/mL | MIC of colistin in combination with the compound ([7]; Cpd conc. […], strain F): 0.5 µg/mL | MIC ([7]; agent alone, no adjuvant (polymyxin conc. 0), strain F, read-out: MIC): > 100 µg/mL | MIC [7, 9]: > 100 µg/mL | MIC of compound in combination with PMB ([7]; PMB 0.25 μg/mL, strain F): > 100 µg/mL | MIC of compound in combination with PMB ([7]; PMB 0.5 μg/mL, strain F): 1.6 µg/mL | MIC of compound in combination with colistin ([7]; colistin 0.06 μg/mL, strain F): > 100 µg/mL | MIC of compound in combination with colistin ([7]; colistin 0.125 μg/mL, strain F): > 100 µg/mL | MIC of compound in combination with colistin ([7]; colistin 0.25 μg/mL, strain F): > 100 µg/mL | MIC of compound in combination with colistin ([7]; colistin 0.5 μg/mL, strain F): ≤ 0.1 µg/mL | MICA(A + B) (MIC of compound in combination with colistin) [7, 10]: 0.4 µg/mL | MICB(A + B) (MIC of colistin in combination with compound) [7, 10]: 0.5 µg/mL | MIC of colistin in combination with the compound ([8]; Cpd conc. 0.4 μg/mL, strain D): 0.5 µg/mL | MIC of colistin in combination with the compound ([8]; Cpd conc. 0.8 μg/mL, strain D): 0.5 µg/mL | MIC of colistin in combination with the compound ([8]; Cpd conc. 3.125 μg/mL, strain D): 0.25 µg/mL | MIC of colistin in combination with the compound ([8]; Cpd conc. 6.25 μg/mL, strain D): 0.25 µg/mL | MIC of colistin in combination with the compound ([8]; Cpd conc. 12.5 μg/mL, strain D): 0.25 µg/mL | MIC of colistin in combination with the compound ([8]; Cpd conc. […], strain D): 0.25 µg/mL | MIC ([8]; agent alone, no adjuvant (polymyxin conc. 0), strain D, read-out: MIC): > 100 µg/mL | MIC [8, 9]: > 100 µg/mL | MIC of compound in combination with PMB ([8]; PMB 0.5 μg/mL, strain D): ≤ 0.1 µg/mL | MIC of compound in combination with colistin ([8]; colistin 0.06 μg/mL, strain D): > 100 µg/mL | MIC of compound in combination with colistin ([8]; colistin 0.125 μg/mL, strain D): > 100 µg/mL | MIC of compound in combination with colistin ([8]; colistin 0.25 μg/mL, strain D): 1.6 µg/mL | MIC of compound in combination with colistin ([8]; colistin 0.5 μg/mL, strain D): ≤ 0.1 µg/mL | MICA(A + B) (MIC of compound in combination with colistin) [8, 10]: 1.6 µg/mL | MICB(A + B) (MIC of colistin in combination with compound) [8, 10]: 0.25 µg/mL
SMILES: CCCCCCCCCCCCO[C@H]1C[C@H](O)[C@@H](O)[C@H](C)O1 [Compound 3, dodecyl 2,6-dideoxy-α-L-arabino-hexopyranoside]
MIC [1]: 16 µg/mL (≈ 50.6 µM) | interaction with phosphatidylethanolamine (PE) [2]: selectively interact with phosphatidylethanolamine (PE); also recorded: Confirmed PE binder | MIC [3]: 4 µg/mL (≈ 12.6 µM) | Interpretation (of FICI) ([4]; compound + colistin): Additive (from 0.5 to 1.0 were additive) | FICI [4, 11]: 0.52 | Interpretation (of FICI) ([5]; compound + colistin): Additive (from 0.5 to 1.0 were additive) | FICI [5, 11]: 0.52 | MIC [6]: 256 µg/mL (≈ 809 µM) | Interpretation (of FICI) ([7]; compound + colistin): Indifferent (1.0 to 4.0 were indifferent) | FICI [7, 11]: 1.002 | Interpretation (of FICI) ([8]; compound + colistin): Additive (from 0.5 to 1.0 were additive) | FICI [8, 11]: 0.51

From paper PMC10817917, “Alkyl deoxyglycoside-polymyxin combinations against critical priority carbapenem-resistant gram-negative bacteria” (Scientific Reports, 2024)
